Here are results for one molecule from patent US20100093808A1, “SALT AND POLYMORPH OF A DPP-IV INHIBITOR” (priority 2005, published 2010).

In this assay the target is T1, human DPP-IV (Homo sapiens, UniProt P27487).
T1 construct: made in house; host or cells: Pichia pastoris (purified from the culture medium)
In words: DPP-IV activity assay (colorimetric / fluorometric). Type of assay: biochemical. Conditions: natural human DPP-IV from human plasma pool or recombinant human DPP-IV; 37° C., pH 7.8. As for the experimental part:
Activity of DPP-IV inhibitors are tested with natural human DPP-IV derived from a human plasma pool or with recombinant human DPP-IV. Human citrate plasma from different donors is pooled, filtered through a 0.2 micron membrane under sterile conditions and aliquots of 1 mL are shock frozen and stored at […]. until used. In the colorimetric DPP-IV assay 5 to 10 μL human plasma and in the fluorometric assay 1.0 μL of human plasma in a total assay volume of 100 μL is used as an enzyme source. The cDNA of the human DPP-IV sequence of amino acid 31- to 766, restricted for the N-terminus and the transmembrane domain, is cloned into pichia pastoris. […]
In the colorimetric assay H-Ala-Pro-pNA.HCl (Bachem L-1115) is used as a substrate. […] Fluorescence is detected in a Perkin Elmer Luminescence Spectrometer LS 50B at an excitation wavelength of 400 nm and an emission wavelength of 505 nm continuously every 15 seconds for 10 to 30 minutes. Initial rate constants are calculated by best fit linear regression. The absorption of pNA liberated from the colorimetric substrate is detected in a Packard SpectraCount at […] continuously every 2 minutes for 30 to 120 minutes. Initial rate constants are calculated by best fit linear regression. […]
IC50 determinations of test compounds are calculated by non-linear best fit regression of the DPP-IV inhibition of at least 5 different compound concentrations. […]

Counter-ions that a name gives are not always drawn.

T1 sequence (P27487 31-766): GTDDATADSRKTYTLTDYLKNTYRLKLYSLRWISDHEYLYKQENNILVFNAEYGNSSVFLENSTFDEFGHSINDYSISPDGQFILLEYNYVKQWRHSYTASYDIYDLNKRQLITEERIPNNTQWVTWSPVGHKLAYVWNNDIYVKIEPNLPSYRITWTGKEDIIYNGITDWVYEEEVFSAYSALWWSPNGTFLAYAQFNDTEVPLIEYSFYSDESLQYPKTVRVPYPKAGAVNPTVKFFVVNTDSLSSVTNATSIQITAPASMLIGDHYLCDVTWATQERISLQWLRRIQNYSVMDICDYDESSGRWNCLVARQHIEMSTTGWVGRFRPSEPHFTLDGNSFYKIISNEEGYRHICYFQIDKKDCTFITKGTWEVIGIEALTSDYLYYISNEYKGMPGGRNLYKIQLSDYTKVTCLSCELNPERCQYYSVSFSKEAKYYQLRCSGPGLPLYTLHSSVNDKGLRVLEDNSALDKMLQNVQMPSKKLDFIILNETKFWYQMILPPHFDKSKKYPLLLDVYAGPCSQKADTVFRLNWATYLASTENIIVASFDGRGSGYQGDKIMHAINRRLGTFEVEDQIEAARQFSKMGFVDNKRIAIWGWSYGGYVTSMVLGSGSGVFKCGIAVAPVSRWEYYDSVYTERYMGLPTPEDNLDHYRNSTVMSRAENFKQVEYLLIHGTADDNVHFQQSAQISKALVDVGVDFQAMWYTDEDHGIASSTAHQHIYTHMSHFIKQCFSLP

As a reminder, the IC50 is the midpoint of a concentration-inhibition curve. The Ki is the dissociation constant of the complex between target and ligand, obtained from inhibition or displacement. As to `CC(C)(CCn1cnc(-c2cccnc2)c1)NCC(=O)N1CCC[C@H]1C#N` [(2S)-1-{[1,1-Dimethyl-3-(4-pyridin-3-yl-imidazol-1-yl)-propylamino]-acetyl}-pyrrolidine-2-carbonitrile fumarate], the concentration for half-maximal inhibition (IC50) came out at 21.2 nM and the Ki came out at 22.7 nM.
